Publication PMC9469208 (Journal of Medicinal Chemistry, 2022)
Several values for one entry are separate records, joined by “and”; a condition that tells them apart may be missing. Identical values can stand only once. Like-named read-outs stand apart in the source and are kept apart here.

Experiments:
mGluR1 = biological target: T1, mGluR1 (Rattus norvegicus, UniProt P23385); test: mGluR1 binding (agonist radioligand); conditions: read-out: % Inhibition of control specific binding, mGluR1
T1 construct: purchased Cerep (Eurofins), Poitiers, France; Promega P450-Glo; in-house COS-7 uptake assays
T1 sequence (P23385 19-1199): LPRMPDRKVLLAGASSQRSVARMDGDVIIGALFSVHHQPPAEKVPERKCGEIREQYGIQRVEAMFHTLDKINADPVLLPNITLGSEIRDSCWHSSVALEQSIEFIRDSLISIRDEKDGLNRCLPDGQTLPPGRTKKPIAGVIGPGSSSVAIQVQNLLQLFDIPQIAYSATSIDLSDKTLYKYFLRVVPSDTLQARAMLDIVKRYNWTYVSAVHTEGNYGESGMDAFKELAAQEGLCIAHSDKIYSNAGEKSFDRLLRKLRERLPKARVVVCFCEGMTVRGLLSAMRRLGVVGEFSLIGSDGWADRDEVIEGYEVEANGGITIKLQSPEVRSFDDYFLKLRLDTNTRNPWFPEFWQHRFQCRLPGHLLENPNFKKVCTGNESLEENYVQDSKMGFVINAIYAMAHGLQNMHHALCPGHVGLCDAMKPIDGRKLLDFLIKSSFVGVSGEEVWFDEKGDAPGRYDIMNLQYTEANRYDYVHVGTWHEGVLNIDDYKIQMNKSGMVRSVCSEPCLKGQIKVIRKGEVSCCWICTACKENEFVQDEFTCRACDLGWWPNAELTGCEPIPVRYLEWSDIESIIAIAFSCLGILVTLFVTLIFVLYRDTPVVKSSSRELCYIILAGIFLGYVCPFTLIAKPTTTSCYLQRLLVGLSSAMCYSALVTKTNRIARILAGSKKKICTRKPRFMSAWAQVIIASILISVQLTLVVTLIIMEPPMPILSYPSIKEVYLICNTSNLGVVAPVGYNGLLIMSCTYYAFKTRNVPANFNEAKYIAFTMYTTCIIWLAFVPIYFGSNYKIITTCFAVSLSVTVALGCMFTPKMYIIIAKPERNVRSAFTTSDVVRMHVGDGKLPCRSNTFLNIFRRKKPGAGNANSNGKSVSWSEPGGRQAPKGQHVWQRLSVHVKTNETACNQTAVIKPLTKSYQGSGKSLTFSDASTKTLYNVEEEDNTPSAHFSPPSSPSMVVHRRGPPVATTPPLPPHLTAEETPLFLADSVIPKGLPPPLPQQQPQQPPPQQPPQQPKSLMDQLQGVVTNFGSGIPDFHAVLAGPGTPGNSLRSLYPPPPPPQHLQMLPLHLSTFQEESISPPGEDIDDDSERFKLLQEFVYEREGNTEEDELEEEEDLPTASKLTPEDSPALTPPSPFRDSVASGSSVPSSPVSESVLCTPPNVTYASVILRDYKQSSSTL

hERG potassium channel = hERG potassium channel (Homo sapiens, UniProt Q12809); test: in vitro
mGluR5 (h) = biological target: T2, mGluR5 (h) (Homo sapiens, UniProt P41594); test: mGluR5 (h) binding (agonist radioligand); conditions: human recombinant, read-out: % Inhibition of control specific binding, mGluR5 (h)
T2 construct: purchased Cerep (Eurofins), Poitiers, France; Promega P450-Glo; in-house COS-7 uptake assays
Excerpt: (§1) The general information is listed in the Supporting Information.

EAAT3 = EAAT3 (Homo sapiens, UniProt P43005); conditions: transfected COS-7 cells
Dopamine transporter (h) = biological target: T3, Dopamine transporter (h) (Homo sapiens, UniProt Q01959); test: Dopamine transporter (h) (antagonist radioligand); type: binding; conditions: read-out: % Inhibition, Dopamine transporter (h)
T3 construct: purchased Cerep (Eurofins), Poitiers, France; Promega P450-Glo; in-house COS-7 uptake assays
Excerpt: as §1

recombinant human CYP2C9 = biological target: T4, recombinant human CYP2C9 (Homo sapiens, UniProt P11712); test: CYP2C9 activity assay; type: in vitro ADME; conditions: comparable to the racemate
T4 construct: purchased Cerep (Eurofins), Poitiers, France; Promega P450-Glo; in-house COS-7 uptake assays

mGlu2 (h) = biological target: T5, mGlu2 (h) (Homo sapiens, UniProt Q14416); test: mGlu2 (h) binding (antagonist radioligand); conditions: human recombinant (Chem-1 cells), read-out: % Inhibition of control specific binding, mGlu2 (h)
T5 construct: purchased Cerep (Eurofins), Poitiers, France; Promega P450-Glo; in-house COS-7 uptake assays
Excerpt: as §1

EAAT1 = EAAT1 (Homo sapiens, UniProt P43003); conditions: transfected COS-7 cells
[1] = biological target: T6, GLYT1 Glycine Transporter (Homo sapiens, UniProt P48067); test: GLYT1 glycine transporter binding; conditions: rat brain, listed as (R)-7 [(R)-AS-1]
T6 construct: purchased Cerep (Eurofins), Poitiers, France; Promega P450-Glo; in-house COS-7 uptake assays
T6 sequence (P48067 whole entry): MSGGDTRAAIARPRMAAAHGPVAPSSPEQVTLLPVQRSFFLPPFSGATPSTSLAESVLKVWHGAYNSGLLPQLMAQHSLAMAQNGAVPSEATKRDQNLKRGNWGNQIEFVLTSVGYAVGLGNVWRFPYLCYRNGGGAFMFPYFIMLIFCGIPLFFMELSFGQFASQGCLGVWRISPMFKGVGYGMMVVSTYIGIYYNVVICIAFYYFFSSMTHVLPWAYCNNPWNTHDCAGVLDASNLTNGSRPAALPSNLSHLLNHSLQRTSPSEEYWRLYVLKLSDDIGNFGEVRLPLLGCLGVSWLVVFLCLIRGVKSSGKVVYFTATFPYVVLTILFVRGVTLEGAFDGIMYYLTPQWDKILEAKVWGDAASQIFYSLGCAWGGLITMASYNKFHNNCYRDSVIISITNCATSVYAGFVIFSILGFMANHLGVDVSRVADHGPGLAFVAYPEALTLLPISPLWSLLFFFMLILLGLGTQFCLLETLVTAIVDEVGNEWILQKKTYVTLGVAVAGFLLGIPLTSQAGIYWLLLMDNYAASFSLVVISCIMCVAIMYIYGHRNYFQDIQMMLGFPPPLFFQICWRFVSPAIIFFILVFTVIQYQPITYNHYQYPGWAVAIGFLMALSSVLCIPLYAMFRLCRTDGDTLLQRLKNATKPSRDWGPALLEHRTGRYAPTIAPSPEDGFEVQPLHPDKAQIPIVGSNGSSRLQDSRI
Excerpt: as §1

[2] = 100 mg/kg i.p., mice
GlyRA1 = biological target: T7, GlyRA1 (Homo sapiens, UniProt P23415); type: cell-based
T7 construct: purchased Cerep (Eurofins), Poitiers, France; Promega P450-Glo; in-house COS-7 uptake assays
T7 sequence (P23415 29-457): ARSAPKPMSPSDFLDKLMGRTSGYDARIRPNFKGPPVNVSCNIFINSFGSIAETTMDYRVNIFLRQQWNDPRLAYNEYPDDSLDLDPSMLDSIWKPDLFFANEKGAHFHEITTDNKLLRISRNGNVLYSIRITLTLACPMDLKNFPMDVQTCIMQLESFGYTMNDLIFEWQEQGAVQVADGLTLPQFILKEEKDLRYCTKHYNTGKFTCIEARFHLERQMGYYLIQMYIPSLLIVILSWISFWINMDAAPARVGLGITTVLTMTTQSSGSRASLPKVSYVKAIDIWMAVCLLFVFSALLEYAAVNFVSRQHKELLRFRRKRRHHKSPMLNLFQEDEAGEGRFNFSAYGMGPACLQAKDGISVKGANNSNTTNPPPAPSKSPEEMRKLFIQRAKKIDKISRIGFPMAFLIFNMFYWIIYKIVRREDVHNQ

sst2 (h) = biological target: T8, sst2 (h) (Homo sapiens, UniProt P30874); test: sst2 (h) functional assay; type: cell-based
T8 construct: purchased Cerep (Eurofins), Poitiers, France; Promega P450-Glo; in-house COS-7 uptake assays
T8 sequence (P30874 whole entry): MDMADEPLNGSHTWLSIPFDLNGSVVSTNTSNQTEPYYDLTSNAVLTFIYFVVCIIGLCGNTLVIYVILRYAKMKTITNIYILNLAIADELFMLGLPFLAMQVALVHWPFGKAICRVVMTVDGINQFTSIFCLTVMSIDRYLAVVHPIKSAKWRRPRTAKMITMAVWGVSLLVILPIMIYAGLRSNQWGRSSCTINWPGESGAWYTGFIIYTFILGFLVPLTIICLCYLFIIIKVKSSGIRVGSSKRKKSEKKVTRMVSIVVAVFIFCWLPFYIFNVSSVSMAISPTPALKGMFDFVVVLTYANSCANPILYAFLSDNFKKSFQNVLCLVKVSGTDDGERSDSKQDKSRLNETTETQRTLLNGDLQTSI
Excerpt: as §1

Glutamate, NMDA, Glycine = Glutamate, NMDA, Glycine (Rattus norvegicus, UniProt P35439); test: Glutamate NMDA glycine [3H]MDL 105,519 binding; conditions: read-out: % Inhibition of control specific binding, Glutamate, NMDA, Glycine [3H] MDL 105,519
Excerpt: as §1

5-HT7 (h) = biological target: T9, 5-HT7 (h) (Homo sapiens, UniProt P34969); test: 5-HT7 (h) functional assay; type: cell-based
T9 construct: purchased Cerep (Eurofins), Poitiers, France; Promega P450-Glo; in-house COS-7 uptake assays
T9 sequence (P34969 whole entry): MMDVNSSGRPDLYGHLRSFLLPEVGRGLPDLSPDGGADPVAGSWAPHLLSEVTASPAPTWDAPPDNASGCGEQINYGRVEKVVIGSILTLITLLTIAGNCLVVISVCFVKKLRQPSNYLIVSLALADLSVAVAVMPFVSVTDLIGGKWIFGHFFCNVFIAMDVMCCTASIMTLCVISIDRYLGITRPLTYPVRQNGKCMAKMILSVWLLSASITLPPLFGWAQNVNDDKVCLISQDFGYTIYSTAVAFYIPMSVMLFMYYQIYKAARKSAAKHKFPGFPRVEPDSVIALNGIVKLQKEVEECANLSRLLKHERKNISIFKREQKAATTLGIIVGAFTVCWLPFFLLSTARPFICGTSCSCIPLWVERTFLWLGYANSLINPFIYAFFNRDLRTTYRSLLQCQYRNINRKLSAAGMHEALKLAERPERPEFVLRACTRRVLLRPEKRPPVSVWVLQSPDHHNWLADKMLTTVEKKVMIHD
Excerpt: as §1

D1 (h) = biological target: T10, D1 (h) (Homo sapiens, UniProt P21728); test: D1 (h) functional assay; type: cell-based
T10 construct: purchased Cerep (Eurofins), Poitiers, France; Promega P450-Glo; in-house COS-7 uptake assays
T10 sequence (P21728 whole entry): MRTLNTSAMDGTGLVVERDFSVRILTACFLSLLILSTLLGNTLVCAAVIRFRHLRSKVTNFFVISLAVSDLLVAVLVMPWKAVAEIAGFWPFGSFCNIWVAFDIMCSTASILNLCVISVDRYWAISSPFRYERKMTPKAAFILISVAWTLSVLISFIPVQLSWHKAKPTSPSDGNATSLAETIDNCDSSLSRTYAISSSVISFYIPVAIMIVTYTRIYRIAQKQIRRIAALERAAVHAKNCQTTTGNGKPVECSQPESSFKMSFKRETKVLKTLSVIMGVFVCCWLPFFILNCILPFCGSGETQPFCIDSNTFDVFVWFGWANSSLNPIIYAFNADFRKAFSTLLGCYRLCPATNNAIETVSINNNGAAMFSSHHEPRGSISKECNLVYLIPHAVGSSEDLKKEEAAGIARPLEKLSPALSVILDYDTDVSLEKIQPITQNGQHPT
Excerpt: as §1

[3] = biological target: T11, Norepinephrine transporter (h) (Homo sapiens, UniProt P23975); test: Norepinephrine transporter (h) (antagonist radioligand); type: binding; conditions: read-out: % Inhibition, Norepinephrine transporter (h)
T11 construct: purchased Cerep (Eurofins), Poitiers, France; Promega P450-Glo; in-house COS-7 uptake assays
Excerpt: as §1

mouse SV2A = biological target: T12, mouse SV2A (Mus musculus, UniProt Q9JIS5); test: SV2A radioligand binding assay ([3H]brivaracetam); conditions: mouse brain cortex membranes
T12 construct: membrane preparations of mouse brain cortex; from tissue; host or cells: mouse brain cortex membranes
T12 sequence (Q9JIS5 whole entry): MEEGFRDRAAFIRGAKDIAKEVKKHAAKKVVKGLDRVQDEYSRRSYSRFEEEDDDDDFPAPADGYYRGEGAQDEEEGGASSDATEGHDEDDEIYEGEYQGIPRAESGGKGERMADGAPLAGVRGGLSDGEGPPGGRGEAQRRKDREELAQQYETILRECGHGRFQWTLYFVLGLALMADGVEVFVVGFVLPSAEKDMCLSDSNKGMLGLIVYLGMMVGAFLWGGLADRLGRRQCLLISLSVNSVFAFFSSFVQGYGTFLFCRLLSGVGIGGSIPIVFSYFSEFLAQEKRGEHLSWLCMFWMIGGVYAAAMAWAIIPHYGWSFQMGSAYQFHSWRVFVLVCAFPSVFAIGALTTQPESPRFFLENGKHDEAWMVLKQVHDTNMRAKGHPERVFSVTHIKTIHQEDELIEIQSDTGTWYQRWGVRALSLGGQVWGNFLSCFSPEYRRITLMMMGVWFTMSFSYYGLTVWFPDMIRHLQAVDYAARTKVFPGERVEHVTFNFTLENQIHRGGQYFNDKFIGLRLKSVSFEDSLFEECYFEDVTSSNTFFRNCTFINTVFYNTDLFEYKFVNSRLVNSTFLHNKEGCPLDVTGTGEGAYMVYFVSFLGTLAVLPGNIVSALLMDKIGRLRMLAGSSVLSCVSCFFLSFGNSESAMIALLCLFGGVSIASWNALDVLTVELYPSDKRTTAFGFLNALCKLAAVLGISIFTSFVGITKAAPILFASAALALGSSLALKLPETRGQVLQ
Protocol: (§2) The competitive radioligand-binding assay was essentially performed as previously described.[96],[97] The SV2A-containing preparations, either cell lysate of human SV2A-expressing CHO cells, or membrane preparations of mouse brain cortex, were incubated with the radioligand [^3H]brivaracetam (3 nM) in the absence or presence of test compound for 4 h. Incubation was performed in 500 μL of Tris-buffer (50 mM Tris–HCl, pH 7.4) containing 2 mM MgCl2 at 4 °C on a rocking shaker. […] The test compounds were dissolved in dimethyl sulfoxide (DMSO) and further diluted in DMSO. The DMSO concentration in all vials was adjusted to 2%. The separation of bound and unbound radioligand was performed via rapid vacuum filtration using GF/C glass fiber filters that had been presoaked in Tris-buffer containing 0.1% polyethyleneimine for 30 min. The filters were rapidly washed three times with about 1 mL of Tris-buffer each and subsequently placed in a drying oven at 50 °C for 90 min. The filters were then transferred to scintillation vials and 2.5 mL of scintillation cocktail (ProSafe FC+, Meridian Biotechnologies Ltd.) was added. After an incubation period of at least 9 h, radioactivity was measured in a scintillation counter. Results were analyzed by GraphPad Prism 7.0.

human SV2A = biological target: T13, human SV2A (Homo sapiens, UniProt Q7L0J3); test: SV2A radioligand binding assay ([3H]brivaracetam); conditions: [3H]brivaracetam 3 nM, human SV2A-expressing CHO cell lysate
T13 construct: expressed in transfected cells; host or cells: CHO cells
T13 sequence (Q7L0J3 whole entry): as the sequence (Q9JIS5 whole entry) above, with A62S, A71T, D144E, T154A, S440G, A482S, V572I, L634M counted along it
Protocol: as §2

D2L (h) = biological target: T14, D2L (h) (Homo sapiens, UniProt P14416); test: D2L (h) functional assay; type: cell-based
T14 construct: purchased Cerep (Eurofins), Poitiers, France; Promega P450-Glo; in-house COS-7 uptake assays
T14 sequence (P14416 whole entry): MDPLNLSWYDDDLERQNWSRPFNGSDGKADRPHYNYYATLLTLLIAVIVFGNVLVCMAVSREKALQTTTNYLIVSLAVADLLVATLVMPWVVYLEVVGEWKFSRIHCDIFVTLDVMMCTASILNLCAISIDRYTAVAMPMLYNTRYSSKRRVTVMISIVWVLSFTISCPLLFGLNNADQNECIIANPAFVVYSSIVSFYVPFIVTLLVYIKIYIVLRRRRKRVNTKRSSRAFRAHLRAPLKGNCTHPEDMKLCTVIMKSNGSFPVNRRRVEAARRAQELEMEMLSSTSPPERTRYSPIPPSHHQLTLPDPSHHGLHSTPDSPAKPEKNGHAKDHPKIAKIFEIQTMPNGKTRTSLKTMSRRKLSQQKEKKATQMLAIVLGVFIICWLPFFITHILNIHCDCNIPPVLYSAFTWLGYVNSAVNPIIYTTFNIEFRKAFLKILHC
Excerpt: as §1

sst4 (h) = biological target: T15, sst4 (h) (Homo sapiens, UniProt P31391); test: sst4 (h) functional assay; type: cell-based
T15 construct: purchased Cerep (Eurofins), Poitiers, France; Promega P450-Glo; in-house COS-7 uptake assays
T15 sequence (P31391 whole entry): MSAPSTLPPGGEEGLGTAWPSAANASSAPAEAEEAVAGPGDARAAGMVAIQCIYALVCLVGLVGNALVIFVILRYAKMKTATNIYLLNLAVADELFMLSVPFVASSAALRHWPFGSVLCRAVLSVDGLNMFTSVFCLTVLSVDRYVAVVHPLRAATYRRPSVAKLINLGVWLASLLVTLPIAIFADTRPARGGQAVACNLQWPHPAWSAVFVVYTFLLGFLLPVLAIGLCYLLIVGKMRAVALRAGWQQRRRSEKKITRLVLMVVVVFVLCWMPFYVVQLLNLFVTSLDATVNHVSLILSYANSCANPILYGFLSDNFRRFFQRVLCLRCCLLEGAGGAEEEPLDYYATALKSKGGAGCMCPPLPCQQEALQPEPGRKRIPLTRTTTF
Excerpt: as §1

hCav3.2 = hCav3.2 (Homo sapiens, UniProt O95180); test: cell-based
[4] = 10 μM, listed as (R)-7 [(R)-AS-1]
[5] = 100 μM, listed as (R)-7 [(R)-AS-1]

For `C[C@H](C(=O)NCc1ccccc1)N1C(=O)CCC1=O` [(R)-7, (R)-N-Benzyl-2-(2,5-dioxopyrrolidin-1-yl)propanamide], the inhibition at 10 µM (mGluR1; 10 μM, rat brain) was -6.72%, the inhibition at 100 µM (mGluR1) was -6.72% and the inhibition at 100 µM (hERG potassium channel) was -8.02%. The inhibition at 10 µM (mGluR5 (h)) was -7.78%, the “effect on EAAT3-mediated glutamate uptake” value (EAAT3) was “no effects” and the inhibition at 100 µM (Dopamine transporter (h)) was -2.69%. For the same compound, the “effect in the CYP2C9 assay” value (recombinant human CYP2C9) was “moderate inhibitory effect”, the inhibition at 50 µM (mGlu2 (h)) was -8% and the “effect on EAAT1-mediated glutamate uptake” value (EAAT1) was “no effects”. For the same compound, the “% Inhibition of control specific binding, GLYT1 Glycine Transporter” value ([1]; 10 μM) was -2.00% and -1.00%, the “% Inhibition of control specific binding, GLYT1 Glycine Transporter” value ([1]; 100 μM) was -1.00% and -2.00% and the “AUC0–∞, brain” value ([2]; listed as (R)-7 [(R)-AS-1]) was 2813.0 μg·min/mL(g) and 2813.04 μg·min/mL(g). For the same compound, the “AUC0–∞, serum” value ([2]; listed as (R)-7 [(R)-AS-1]) was 4625.8 μg·min/mL(g) and 4625.78 μg·min/mL(g), the “Cmax, serum” value ([2]; listed as (R)-7 [(R)-AS-1]) was 82.7 μg/mL(g) and 82.73 μg/mL(g) and the total clearance ([2]; noncompartmental approach) was “approx. 0.6 mL/min”. The “GlyRA1 agonist, % Control, Mean” value (GlyRA1) was 1.94% and 1.94 (100 µM) %, the “GlyRA1 agonist, % Control, n1” value (GlyRA1) was 1.83% and the “GlyRA1 agonist, % Control, n2” value (GlyRA1) was 2.05%. For the same compound, the “% Effect, sst2 (h) (Agonist effect)” value (sst2 (h); [4]) was 0.50% and 0.50 (10 µM) %, the inhibition at 50 µM (sst2 (h); 50 μM, read-out: % Inhibition, sst2 (h) (Antagonist effect)) was 5.25% and the inhibition at 10 µM (Glutamate, NMDA, Glycine) was -3%. For the same compound, the “% Effect, 5-HT7 (h) (Agonist effect)” value (5-HT7 (h); [4]) was -4.26% and -4.26 (10 µM) %, the inhibition at 10 µM (5-HT7 (h); read-out: % Inhibition, 5-HT7 (h) (Antagonist effect)) was -25% and the “% Effect, D1 (h) (Agonist effect)” value (D1 (h); [5]) was 1.70% and 1.70 (100 µM) %. For the same compound, the inhibition at 100 µM (D1 (h); read-out: % Inhibition, D1 (h) (Antagonist effect)) was -2.57%, the inhibition at 100 µM [3] was 3.01% and the “Binding to mouse SV2A” value (mouse SV2A) was “no binding observed”. The Ki (human SV2A) was 275 µM and > 250 µM, the “% Effect, D2L (h) (Agonist effect)” value (D2L (h); [5]) was 0.22% and 0.22 (100 µM) % and the inhibition at 100 µM (D2L (h); read-out: % Inhibition, D2L (h) (Antagonist effect)) was 3.27%. For the same compound, the “% Effect, sst4 (h) (Agonist effect)” value (sst4 (h); [4]) was -7.88% and -7.88 (10 µM) %, the inhibition at 50 µM (sst4 (h); 50 μM, read-out: % Inhibition, sst4 (h) (Antagonist effect)) was 8.25% and the inhibition at 100 µM (hCav3.2; read-out: hCav3.2 % Inhibition, Mean) was -0.79%. It also gave an inhibition at 100 µM (hCav3.2; read-out: hCav3.2 % Inhibition, n1) of 5.25% and an inhibition at 100 µM (hCav3.2; read-out: hCav3.2 % Inhibition, n2) of -6.84%.
